These results are taken from patent US11673965B2, “Method of treating metastatic triple negative breast cancer with radiotherapy combined with phosphatidyl inositol-3 kinase delta/gamma inhibitors and anti-PD-1 antibodies” (Seoul National University R&DB Foundation, priority 2019, dated 2023).

Structures are written as SMILES.

For this experiment, the system named is 4T1-luc triple negative breast cancer cells. Nature of the experiment: Size change of tumor in triple negative breast cancer allograft mouse model. It counts as in vivo, mouse (BALB/c). As to conditions: 31st day; 4T1-luc allograft; duvelisib 4 mg/kg and/or PD-1 blockade 10 mg/kg by injection 6 times; RT 8 Gy×3. Here is the method: A triple negative breast cancer cell line (4T1-luc) was cultured in DMEM (Dulbecco's Modified Eagle's Medium, CORNING™) medium containing 10% (v/v) fetal bovine serum (FBS) and 1% (w/v) Penicillin-Streptomycin, using a cell culture flask, in a thermostat cell culture device under the condition of 37° C., 5% CO2.
6×10^5 4T1-luc triple negative breast cancer cells prepared in Example 1-1 were injected to the right hindlimb of a BALB/c female age standard (8 weeks) mice. At the 10th day after injecting each of the cancer cells, the mice with the tumor volume up to 40 mm^3 were selected, and were used for later experiments.
The triple negative breast cancer (TNBC) mouse model prepared by the method of Example 1-2 was assigned to 7 groups in total from the 10th day after cancer cell transplantation, and each treatment method was performed, and it was grouped into 7 groups so that the tumor mean volume of 7 mice was 40 mm^3 per group, and were used for later experiments.
Each treatment was progressed for 31 days after tumor transplantation. […]
On the day of each treatment, the size of tumor, the length and width were measured using Vernier caliper, and then the volume (mm^3) of tumor was calculated by the method of the following equation 1. […]

With `C[C@H](Nc1ncnc2nc[nH]c12)c1cc2cccc(Cl)c2c(=O)n1-c1ccccc1` [PI3K γ δ inhibitor, duvelisib], the Mean tumor volume was 786.59 mm^3.
